Several values for one entry are separate records, joined by “and”; a condition that tells them apart may be missing. Equal values may be shown once.
Assays:
hPXR-LBD (PXR.1) = molecular target: T1, hPXR-LBD (PXR.1) (Homo sapiens, UniProt O75469); experiment: Isothermal titration calorimetry with His-tagged hPXR-LBD; assay type: binding; conditions: 37°C; for Kd: single-site model
T1 construct: made in house; host or cells: E. coli BL21-Gold
T1 sequence (O75469 146-433 limits assumed): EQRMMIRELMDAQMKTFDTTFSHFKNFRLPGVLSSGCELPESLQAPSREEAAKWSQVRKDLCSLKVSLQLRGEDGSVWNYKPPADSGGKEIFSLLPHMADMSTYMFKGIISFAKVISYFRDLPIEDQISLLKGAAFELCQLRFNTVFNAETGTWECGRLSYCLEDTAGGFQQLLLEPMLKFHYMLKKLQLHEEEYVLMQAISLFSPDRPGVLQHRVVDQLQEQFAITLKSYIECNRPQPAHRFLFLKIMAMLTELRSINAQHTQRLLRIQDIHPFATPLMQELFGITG
Procedure: The cloning, expression, and purification of His‐tagged PXR‐LBD were performed as previously published (Wallace et al, 2013) with the following modifications: For protein expression, Luria–Bertani (LB) media were inoculated with a saturated culture of BL21‐Gold cells transformed with HIS‐LIC plasmid containing the PXR‐LBD construct. The mixture was allowed to shake at 37°C until the cells reached an OD600 ~ 0.6, and then, the temperature was reduced to 18°C, at which time IPTG was added (final concentration of 0.1 mM) to induce protein expression. For purification, the His‐tag was not removed, and the uncleaved protein was loaded onto the gel filtration column with buffer containing HEPES (4‐(2‐hydroxyethyl)‐1‐piperazineethanesulfonic acid) (25 mM, pH 7.5) and NaCl (150 mM).
Isothermal titration calorimetry (ITC) was carried out using a VP‐ITC microcalorimeter from MicroCal⁄Malvern Instruments (Northampton, MA, USA). […] In all the experiments, the ligand solution was injected in 10 μl aliquots into the calorimetric cell containing PXR‐LBD (ligand‐binding domain) at a concentration of 3–6 μM. […] The experiments were carried out at 37°C. The heat evolved upon each injection of the ligands was obtained from the integral of the calorimetric signal. The heat associated with binding to PXR‐LBD in the cell was obtained by subtracting the heat of dilution from the heat of reaction.

NF-κB = experiment: TNF-α-induced NF-κB reporter assay in LS180 cells with or without PXR co-transfection; assay type: cell-based, human; conditions: for TNF-α-induced NF-κB reporter activity: 0.1 to 25 μM, PXR-untransfected and PXR-transfected cells
Procedure: NF‐κB reporter assays were performed using LS180 cells. […] Thereafter, cells were lysed, and Nano luciferase activity was measured using a Tecan Infinite M200 Pro plate reader (Schoeller Instruments, Czech Republic).

hPXR = molecular target: T2, hPXR (Homo sapiens, UniProt O75469); experiment: biochemical
T2 sequence (O75469 111-434 limits assumed): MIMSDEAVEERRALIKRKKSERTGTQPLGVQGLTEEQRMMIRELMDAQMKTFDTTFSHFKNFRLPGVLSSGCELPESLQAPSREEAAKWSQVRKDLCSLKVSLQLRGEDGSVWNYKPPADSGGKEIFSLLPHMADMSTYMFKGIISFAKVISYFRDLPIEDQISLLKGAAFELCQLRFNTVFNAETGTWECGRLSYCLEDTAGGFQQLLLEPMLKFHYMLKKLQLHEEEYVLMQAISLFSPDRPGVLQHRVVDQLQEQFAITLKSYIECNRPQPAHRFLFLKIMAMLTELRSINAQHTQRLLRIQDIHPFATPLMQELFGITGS
Procedure: All PXR‐binding assays were performed as two independent experiments, each with a minimum of four replicates. Final IC50 was obtained by processing the data with GraphPad Prism 6 using standard curve interpolation (sigmoidal, 4PL, variable slope).

[1] = NFkB transfected LS180 cells, 8th pass, EXP1, 0,1 uM + TNFa 5 ng/ml
[2] = NFkB transfected LS180 cells, 8th pass, EXP1, 1 uM + TNFa 5 ng/ml
[3] = NFkB transfected LS180 cells, 8th pass, EXP1, 10 uM + TNFa 5 ng/ml
[4] = NFkB transfected LS180 cells, 8th pass, EXP1, 25 uM + TNFa 5 ng/ml
[5] = NFkB transfected LS180 cells, 13th pass, EXP2, 0,1 uM + TNFa 5 ng/ml
[6] = NFkB transfected LS180 cells, 13th pass, EXP2, 1 uM + TNFa 5 ng/ml
[7] = NFkB transfected LS180 cells, 13th pass, EXP2, 10 uM + TNFa 5 ng/ml
[8] = NFkB transfected LS180 cells, 13th pass, EXP2, 25 uM + TNFa 5 ng/ml
[9] = NFkB+PXR transfected LS180 cells, 8th pass, EXP1, 0,1 uM + TNFa 5 ng/ml
[10] = NFkB+PXR transfected LS180 cells, 8th pass, EXP1, 1 uM + TNFa 5 ng/ml
[11] = NFkB+PXR transfected LS180 cells, 8th pass, EXP1, 10 uM + TNFa 5 ng/ml
[12] = NFkB+PXR transfected LS180 cells, 8th pass, EXP1, 25 uM + TNFa 5 ng/ml
[13] = NFkB+PXR transfected LS180 cells, 13th pass, EXP2, 0,1 uM + TNFa 5 ng/ml
[14] = NFkB+PXR transfected LS180 cells, 13th pass, EXP2, 1 uM + TNFa 5 ng/ml
[15] = NFkB+PXR transfected LS180 cells, 13th pass, EXP2, 10 uM + TNFa 5 ng/ml
[16] = NFkB+PXR transfected LS180 cells, 13th pass, EXP2, 25 uM + TNFa 5 ng/ml

| Compound | ΔH (enthalpy of binding) (hPXR-LBD (PXR.1)) | −TΔS (hPXR-LBD (PXR.1)) | Kd (hPXR-LBD (PXR.1)) | TNF-α-induced NF-κB reporter activity (NF-κB) | NFkB reporter luminescence, aver (NF-κB; [1]) | NFkB reporter, % max (NF-κB; [1]) | NFkB reporter luminescence, aver (NF-κB; [2]) | NFkB reporter, % max (NF-κB; [2]) | NFkB reporter luminescence, aver (NF-κB; [3]) | NFkB reporter, % max (NF-κB; [3]) | NFkB reporter luminescence, aver (NF-κB; [4]) | NFkB reporter, % max (NF-κB; [4]) | NFkB reporter luminescence, aver (NF-κB; [5]) | NFkB reporter, % max (NF-κB; [5]) | NFkB reporter luminescence, aver (NF-κB; [6]) | NFkB reporter, % max (NF-κB; [6]) | NFkB reporter luminescence, aver (NF-κB; [7]) | NFkB reporter, % max (NF-κB; [7]) | NFkB reporter luminescence, aver (NF-κB; [8]) | NFkB reporter, % max (NF-κB; [8]) | also measured |
| --- | --- | --- | --- | --- | --- | --- | --- | --- | --- | --- | --- | --- | --- | --- | --- | --- | --- | --- | --- | --- | --- |
| C#CCC(O)(c1ccncc1)c1cc2ccccc2n1S(=O)(=O)c1ccccc1 (centres unmarked) [FKK6] | -3.5 kcal/mol | -4.1 kcal/mol | 2700 nM | significantly reduced | 151491.7 | 100.0% | 188054.3 | 124.1% | 206680.7 | 136.4% | 153657.3 | 101.4% | 110498.5 | 100.0% | 114693.5 | 103.8% | 113662.5 | 102.9% | 88975.5 | 80.5% | NFkB reporter luminescence, aver (NF-κB; [9]): 128584.0; NFkB reporter, % max (NF-κB; [9]): 100.0%; NFkB reporter luminescence, aver (NF-κB; [10]): 112418.0; NFkB reporter, % max (NF-κB; [10]): 87.4%; NFkB reporter luminescence, aver (NF-κB; [11]): 100484.8; NFkB reporter, % max (NF-κB; [11]): 78.1%; NFkB reporter luminescence, aver (NF-κB; [12]): 94342.8; NFkB reporter, % max (NF-κB; [12]): 73.4%; NFkB reporter luminescence, aver (NF-κB; [13]): 50028.3; NFkB reporter, % max (NF-κB; [13]): 100.0%; NFkB reporter luminescence, aver (NF-κB; [14]): 38521.5; NFkB reporter, % max (NF-κB; [14]): 77.0%; NFkB reporter luminescence, aver (NF-κB; [15]): 24979.3; NFkB reporter, % max (NF-κB; [15]): 49.9%; NFkB reporter luminescence, aver (NF-κB; [16]): 26644.5; NFkB reporter, % max (NF-κB; [16]): 53.3%; IC50 (hPXR): 1560 nM and ~1560 nM |
| O=C(c1ccncc1)c1cc2ccccc2n1S(=O)(=O)c1ccccc1 [FKK5, (1-(phenylsulfonyl)-1H-indol-2-yl)(pyridin-4-yl)methanone] | -2.5 kcal/mol | -6.4 kcal/mol | 300 nM | significantly reduced | 154648.3 | 100.0% | 174112.0 | 112.6% | 177548.0 | 114.8% | 128563.8 | 83.1% | 96416.5 | 100.0% | 100061.8 | 103.8% | 94755.5 | 98.3% | 73575.7 | 76.3% | NFkB reporter luminescence, aver (NF-κB; [9]): 119827.8; NFkB reporter, % max (NF-κB; [9]): 100.0%; NFkB reporter luminescence, aver (NF-κB; [10]): 119180.5; NFkB reporter, % max (NF-κB; [10]): 99.5%; NFkB reporter luminescence, aver (NF-κB; [11]): 105570.7; NFkB reporter, % max (NF-κB; [11]): 88.1%; NFkB reporter luminescence, aver (NF-κB; [12]): 87454.8; NFkB reporter, % max (NF-κB; [12]): 73.0%; NFkB reporter luminescence, aver (NF-κB; [13]): 54048.0; NFkB reporter, % max (NF-κB; [13]): 100.0%; NFkB reporter luminescence, aver (NF-κB; [14]): 44601.5; NFkB reporter, % max (NF-κB; [14]): 82.5%; NFkB reporter luminescence, aver (NF-κB; [15]): 31230.0; NFkB reporter, % max (NF-κB; [15]): 57.8%; NFkB reporter luminescence, aver (NF-κB; [16]): 30160.0; NFkB reporter, % max (NF-κB; [16]): 55.8%; IC50 (hPXR): 3770 nM |

From publication PMC7136958, “Targeting the pregnane X receptor using microbial metabolite mimicry” (EMBO Molecular Medicine, 2020)
